Data: patent US8551470B2, “Use of substance P for mobilization of Mesenchymal stem cells or proliferation of Mesenchymal stem cells and for wound healing or facilitating wound healing” (Korea Institute of Radiological & Medical Sciences, priority 2004, dated 2013)

Legend:
[1] = test system: human MSCs; assay: Viable cell count (triphan blue exclusion) of MSCs after Substance-P treatment; type: cell-based; conditions: 3 day
Description: At 3 day after the treatment of Substance-P, the triphan blue excluded viable cells were counted.

[2] = test system: human MSCs; assay: MSC migration and collagen degradation on 3-D collagen gel; type: cell-based; conditions: human MSCs on 3-D collagen gel, Substance-P in bottom dishes (0-100 nM), 72 h
Description: In order to determine the mechanism of Substance-P in the mobilization of MSCs, which are strongly attached onto the endosteal surface of bone marrow, Substance-P was first examined to determine whether it stimulates migration of human MSCs cultured on top of the 3-D collagen gel. The type I collagen gel matrix was made within a 12 mm millicell membrane (milipore: 12-μm pore size) according to the manufacturer's specifications (Nitta gelatin, Japan) and coated overnight with type IV collagen (Nitta). The MSCs were plated on top of the collagen gel, and the outer chamber was filled with Substance-P-containing MSCGM (Cambrex Bio Science). Clearance of the collagen gel was monitored by using the phase contrast microscopy (Olympus). At 72 h, the millicell insert and outer dishes were fixed and stained with hematoxylin, and then the culture supernatants were stored for gelatin zymography.

[3] = test system: MMP-9 and MMP-2; assay: Gelatin zymography of MSC culture supernatants; type: cell-based; conditions: culture medium of human MSCs on 3-D collagen gel, Substance-P 0-100 nM
Description: The culture supernatants were examined for gelatin zymography. The eletrophoresis was performed for the culture supernatant in which sample buffer without mercaptoethanol was added thereto, in 8% SDS-PAGE. The gel was renatured with 2.5% of Triton x-100 in order to remove the SDS, and then was incubated with a developing buffer (50 mM Tris-HCl, pH 7.2 100 mM NaCl, 20 mM CaCl2) at 37° C. overnight, and the gel was stained with Coomassie blue.

[4] = test system: β-catenin; assay: Immunofluorescence staining of β-catenin localization in MSCs; type: cell-based; conditions: human MSCs, 100 nM
Description: In order to determine whether Substance-P affects the self-renewal capacity of human MSCs, β-catenin, which is the downstream effecter of the wnt signaling pathway, was examined. MSCs (Cambrex Bio Science) were plated in the density of 1×10^4/well, and incubated with MSCGM (Cambrex Bio Science). After adhesion of the cells, they were treated with Substance-P in each concentration, and incubated for 16 h and 48 h. The MSCs were fixed with 4% of paraformaldehyde and permeabilized with 0.3% of Triton X-100. After blocking nonspecific antigen with 20% normal goat serum which was diluted in phosphate buffer for 1 h, the coverslips were incubated with antibodies against β-catenin (BD Biosciencs; Cat #6010153, 1:100) for 90 min, and then with the FITC-conjugated secondary antibodies for 60 min(Vector). The cells were counterstained with DAPI, and examined by using confocal microscopy (Leica).

[5] = test system: VEGF and fibronectin; assay: ELISA and Western blot analysis of VEGF and fibronectin in MSC culture supernatants; type: cell-based, human
Description: ELISA and Western blot analysis of fibronectin and VEGF, which are down stream genes of Tcf/β-catenin, were carried out.

[6] = test system: MMP-1, MMP-2, MMP-9, MT1-MMP, TIMP-1, TIMP-2; assay: Immunoprecipitation of 35S-methionine labeled MMPs and TIMPs from MSCs; type: cell-based; conditions: human MSCs, Substance-P 0-100 nM, 35S-methionine labeling 16 h
Description: The effect of Substance-P on the biosynthesis of MMPs (matrix metalloproteinases) and their inhibitors was examined by immunoprecipitation of the culture medium and the cell lysates of MSCs which were labeled with ^35S-methionine. The MSCs were treated with Substance-P and labeled with 50 μCi/ml ^35S-methionine (Amersham) for 16 h. The cell lysate was prepared with a lysis buffer (1% of NP40, 10 mM Tris-HCl, pH 7.4, 150 mM NaCl, 1 mM EDTA, 2 mM PMSF). For immunoprecipitation of the secreted MMP-1, MMP-2, MMP-9, TIMP-1 and TIMP-2, the culture supernatants were incubated with their specific antibodies [anti-MMP-1 (chemicon; Cat #MAB3307, 1:100), anti-MMP-2 (Chemicon; Cat #MAB13405, 1:200), anti-MMP-9 (Calbiochem; Cat #444236, 1:100), anti-TIMP-1 (Calbiochem; Cat #IM32L, 1:250) and anti-TIMP-2 (Calbiochem; Cat #IM11L, 1:250)] for 2 h under constant rotation, and the antibodies were collected by protein-G sepharose-4B (Biorad). The pellet was washed three times with an immunoprecipitation buffer ([…], 50 mM Tris-HCl pH 7.4, 0.2% SDS and 0.5% Nadeoxycholate), once with a high salt buffer (10 mM Tris-HCl, pH 7.4, 0.5 M NaCl), and once with a low salt buffer (10 mM Tris-HCl, pH 7.4). After SDS-PAGE, the gel was soaked in 2 M sodium salicylate, dried, and exposed to the X-ray film for 2 weeks. […]

[7] = test system: cornea wound; assay: Corneal alkali burn rabbit model with intravenous injection of Substance-P; type: in vivo
Description: New Zealand white rabbits weighing 2-3 kg were purchased from Samtako BioKorea. All these animal experiments were approved by Ethical Committee, Korea Institute of Radiological and Medical Sciences, and Chung-Ang University, and conducted in accordance with the ARVO Statement for the Use of Animal in Ophthalmic and Vision Research. For the alkali burn, the rabbit eyes were placed in contact with a 6 mm piece of circular Whatman filter paper soaked in 1N NaOH for 30 seconds. At 1, 3, 5, 7, 10 and 14 day after the alkali burn, rabbit eyes and whole blood were isolated.
Thus, it was examined whether or not Substance-P only can stimulate corneal wound healing. To estimate the effect of Substance-P intravenous injection on acceleration of the wound healing, Substance-P at dosage 6.5 ug/kg was intravenously injected firstly immediately after the injury, and then secondly on 2nd day after the wound. At day 7 after the intravenous injection, cornea recovery was estimated by naked eyes with taking digital picture. […] The intravenous injection of Substance-P strongly expedited the cornea healing as shown by clearance of corneal opaqueness and disappearance of hemorrhagic area, compared with the non-injected control rabbit.
To observe the wound healing degree in the histological level, rabbit eyes were isolated and fixed, and then, H&E staining and immunostaining for CD29 were carried out.

[8] = Substance-P 6.5 ug/kg i.v. twice, vs non-injected

Substance: Substance-P
- number of viable cells compared with the control group ([1]; 1 nM Substance-P): 1.7 times
- number of viable cells compared with the control group ([1]; 10 nM Substance-P): 2.1 times
- number of viable cells compared with the control group ([1]; 100 nM Substance-P): 2.2 times
- degradation of the collagen gel and MSC migration [2]: stimulated degradation of the collagen gel and MSC migration in a dose dependent manner
- MMP-9 and MMP-2 activities (gelatin zymography) [3]: strong induction of MMP-9 and MMP-2 activities
- nuclear localization of β-catenin ([4]; 16 h after Substance-P treatment): only a small number of MSCs at 100 nM showed nuclear localization of β-catenin
- nuclear translocation of β-catenin ([4]; 48 h after Substance-P treatment): all the MSCs showed nuclear translocation of β-catenin
- fibronectin induction (Western blot) ([5]; culture supernatant of Substance-P treated human MSCs): induced
- VEGF induction (ELISA) ([5]; culture supernatants of Substance-P treated human MSCs): induced
- biosynthesis of MMP-1, MMP-2, MMP-9, and MT1-MMP [6]: stimulated in a dose dependent manner
- biosynthesis of inhibitors TIMP-1 and TIMP-2 [6]: inhibited
- corneal regeneration (naked eye, digital picture) ([7]; Substance-P 6.5 ug/kg i.v. immediately after injury and on 2nd day, day 7, vs non-injected control): much faster
- CD29 immunostaining of cornea [7, 8]: CD 29+cells of small and spindle shape inside of collagen fibers
- wound healing degree in histology (H&E staining) [7, 8]: full thickness coverage of epithelium, well organized vasculature, and ordered array of dense collagen bundles
- healing rate (histological observation during the entire period) ([7]; Substance-P i.v. vs control group): speeded up the healing rate faster than the control group
